A word on the Kd: it is the free concentration of one partner at which half of the binding sites on the other are occupied at equilibrium, for simple one-to-one binding. A higher Kd goes with a looser complex.

Our source for the MIC and Kd values is paper PMC11245619, “Asymmetric total synthesis of polycyclic xanthenes and discovery of a WalK activator active against MRSA” (Nature Communications, 2024).

Test [1] deals with T1, Staphylococcus aureus ATCC 29213 (SA29213).
T1 construct: ATCC 29213
Nature of the test: microbe, parasite or virus in culture. Details: broth microdilution MIC (CLSI), growth inhibition read by MTT. Particulars: ATCC29213, 24 h, read-out: MIC. Here is the method: Antibacterial activities of synthetic compounds in vitro The MICs of the antibacterial agents for all strains were determined using the broth microdilution method according to CLSI guidelines. Wells of 96-well microtiter plates (Nunc, Thermo Fisher Scientific Inc., Roskilde) were inoculated with 100 µL of CAMH broth or CAMH broth with 3% lysed horse blood (S. pneumoniae only), containing serially-diluted antimicrobials and a final inoculum of 5 × 10^5 CFU/mL. The concentration ranges were from 0.0625 to 128 μg/mL for each compound: daptomycin, vancomycin, polymyxin B and oxacillin. The microtiter plates were incubated at 37 °C for 24 h. The MIC was defined as the lowest concentration of an antimicrobial agent that inhibited 90% of bacterial growth determined by the MTT assay (MCE, USA)]. All MIC determinations were performed in duplicate.

The target of another test is T2, WalK (erWalK) (Staphylococcus aureus, UniProt Q6GKS6).
T2 construct: extracellular part of the receptor WalK (erWalK, residues 35-182)
Nature of the test: SPR (Biacore 8K, CM5 chip). Format: binding. On the technique in general: In SPR one partner is held on a chip, and binding of the other changes the refractive index at the surface.

In the next test the target is T3, WalK (erWalKR86C) (Staphylococcus aureus, UniProt Q6GKS6, R86C).
T3 construct: erWalK (residues 35-182) with R86C mutation
T3 sequence (Q6GKS6 35-182 R86C): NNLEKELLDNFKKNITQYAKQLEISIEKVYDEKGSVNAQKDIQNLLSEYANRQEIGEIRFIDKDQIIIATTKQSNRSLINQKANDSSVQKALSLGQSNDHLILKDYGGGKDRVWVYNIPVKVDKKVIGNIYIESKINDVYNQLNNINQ
Nature of the test: SPR (Biacore 8K, CM5 chip). Format: binding.

Structures are written as SMILES. In brackets after ≈: the same amount, converted by molar mass.

For the molecule `CC(=O)NC[C@H]1CN(c2ccc(N3CCOCC3)c(F)c2)C(=O)O1` [Linezolid], the MIC in test [1] was found to be 2.5 µg/mL (≈ 7.41 µM).

Consider `CN[C@H](CC(C)C)C(=O)N[C@H]1C(=O)N[C@@H](CC(N)=O)C(=O)N[C@H]2C(=O)N[C@H]3C(=O)N[C@H](C(=O)N[C@H](C(=O)O)c4cc(O)cc(O)c4-c4cc3ccc4O)[C@H](O)c3ccc(c(Cl)c3)Oc3cc2cc(c3O[C@@H]2O[C@H](CO)[C@@H](O)[C@H](O)[C@H]2O[C@H]2C[C@](C)(N)[C@H](O)[C@H](C)O2)Oc2ccc(cc2Cl)[C@H]1O` [Vancomycin], for which the MIC in test [1] was found to be 1 µg/mL (≈ 0.69 µM).

With `CC(C)C(=O)c1c(O)c(C(C2=C(O)C(C)(C)C(=O)C(C)(C)C2=O)C(C)C)c(O)c2c1OC1=C(C(=O)C(C)(C)C(=O)C1(C)C)C2C(C)C` (stereo not drawn) [compound 22, 22], the Kd on WalK (erWalK) turned out to be 11.1 µM; at WalK (erWalKR86C), 73.8 µM. The MIC in test [1] is 0.5 µg/mL (≈ 0.768 µM).

For the molecule `CC1COc2c(N3CCN(C)CC3)c(F)cc3c(=O)c(C(=O)O)cn1c23` (stereo not drawn) [Ofloxacin], the MIC in test [1] amounted to 0.2 µg/mL (≈ 0.553 µM).

As to `NC[C@H]1O[C@H](O[C@H]2[C@H](O)[C@@H](O[C@H]3O[C@H](CO)[C@@H](O)[C@H](N)[C@H]3O)[C@H](N)C[C@@H]2N)[C@H](O)[C@@H](O)[C@@H]1O` [Kanamycin], the MIC in test [1] is 10 µg/mL (≈ 20.6 µM).

Regarding `C[C@@H](O)[C@H]1C(=O)N2C(C(=O)O)=C(S[C@@H]3CN[C@H](C(=O)N(C)C)C3)[C@H](C)[C@H]12` [Meropenem], the MIC in test [1] worked out at 0.312 µg/mL (≈ 0.815 µM).

For the molecule `CN(C)c1cc(NC(=O)CNC(C)(C)C)c(O)c2c1C[C@H]1C[C@H]3[C@H](N(C)C)C(O)=C(C(N)=O)C(=O)[C@@]3(O)C(O)=C1C2=O` [Tigecycline], in test [1], the MIC worked out at 0.312 µg/mL (≈ 0.534 µM).
